Results: patent US4230719A, “Novel 2-[4-(3-methyl-2-thienyl)phenyl]propionic acid and pharmaceutically acceptable salt thereof and method for treating symptoms of inflammation and pain” (Toyama Chemical Co., Ltd., priority 1977, dated 1980)
Where two headings read alike, the source gives them in different places.

Legend:
[1] = test system: Carrageenin-induced edema; assay: Carrageenin-induced edema; format: in vivo, rat (Donryu strain, male); details: Rattus norvegicus, po, read-out: Inhibitory percent of swelling; for inhibition in vivo at 15 mg/kg: 15 mg/kg p.o.
Procedure: (iii) Carrageenin-induced edema
Each of the 6 Donryu strain male rats per group (each weighing about 140 g), which had been fasted overnight, was orally loaded with 4 ml of water and, after 30 minutes, the test compound was orally administered thereto. Thirty minutes thereafter, a 1%(Wt/V) solution of carrageenin in physiological saline was subcutaneously injected into the subplantar region of the left hind paw. At a time interval of one hour, starting from the end of the first hour till the end of the fifth hour after injection of carrageenin, the paw volume was measured by means of a manometer and pressure transducer. By comparison with the percent increase in swelling of the control group of rats to which a 0.5%(V/V) solution of Tween 80 had been administered, the mean inhibitory percent in 5 hours of swelling was calculated by the following equation: [formula]

[2] = test system: phenylbenzoquinone writhing; assay: Analgesic activity, phenylbenzoquinone method in mouse; format: in vivo, mouse (ddY strain, male); details: for Frequency of writhing, mean ± S.E.: during 10 minutes
Procedure: (i) Phenylbenzoquinone method in mouse
The test compound was orally administered to each ddY strain male mouse (weighing 22±2 g; 8 mice per group). […] The frequency of writhing during 10 minutes from 5-minutes after the injection of phenylbenzoquinone was measured and compared with that of a control group to which a 0.5% Tween 80 solution was administered. The percent inhibition was calculated by the following equation: [formula]

[3] = test system: threshold value of pain due to pressure stimuli (tail); details: for Analgesic effect: 100% = threshold raised by 160 g; for ED50: Mus musculus, po
[4] = test system: Vascular permeability; assay: Vascular permeability in mice (Whittle's method); format: in vivo, mouse (ddY strain, male); details: for Inhibition: dye leakage
Procedure: (i) Vascular permeability in mice (Whittle's method)
The test compound was orally administered to each ddY strain male mouse (weighing each about 20 g). After 20 minutes, 0.1 ml/10 g of a 4%(Wt/V) solution of Pontamine Sky Blue in physiological saline was intravenously injected and 10 minutes thereafter 0.1 ml/10 g of a 0.7%(V/V) solution of acetic acid in physiological saline was injected intraperitoneally. After 30 minutes, the mice were killed by suffocation with chloroform. After immediate laparotomy, the dye leaked into the peritoneal cavity was washed out with distilled water. The washings were made up with water to 30 ml and the absorbance at 620 mμ was measured. The amount of leaked dye per 20 g of mouse weight was compared.

[5] = in vivo; details: rat, po
[6] = test system: pain threshold (brewer's yeast, hind paw); assay: Analgesic activity, Randall-Selitto method in rat; format: in vivo, rat (Wistar strain, male); details: for Inhibition: 100% = pain threshold raised by 150 g
Procedure: (ii) Randall-Selitto method in rat
After one hour, the test compound was orally administered. One hour thereafter, the pain threshold value was measured four times at a time interval of one hour. The mean value of four values obtained was taken as the pain threshold value of each group of rats. The activity of the drug was assumed to be 100% when the pain threshold value was raised by 150 g.

[7] = test system: fever (Mycobacterium butyricum); assay: Antipyretic action; format: in vivo, rat (Wistar strain, female)
Procedure: A suspension (0.6 mg/0.1 ml) of killed and dried Mycobacterium butyricum in liquid paraffin was subcutaneously injected in an amount of 0.1 ml into the subplantar region of the hind paw of each Wistar strain female rat weighing about 180 g. After 14 hours, the fevered rats were divided into groups, and each test compound was orally administered to each group to examine the antipyretic effect.

[8] = test system: Phenol Red (PSP) excretion; assay: Uricosuric action (a), inhibition of Phenol Red (PSP) excretion; format: in vivo, rabbit (male); details: dose not stated
Procedure: (a) The action was examined by the method of B. B. Brodie et al. who reported that the inhibitory action on Phenol Red (PSP) excretion correlates with the uricosuric action [Proc. Soc. Exp. Biol. Med., 86, 884 (1954)]. To a male rabbit weighing 2 to 3 kg was intraperitoneally administered the test compound. After 30 minutes, 75 mg/kg of a Phenol Red suspension was injected into the pinna vein of the rabbit and 30 minutes thereafter a blood sample was drawn from the pinna vein. The blood sample was centrifuged and the serum was diluted with physiological saline. The diluted serum was treated with 0.1 N NaOH to develop the color. The concentration of Phenol Red in the serum was determined from the absorbance at 560 mμ.

[9] = test system: Vascular permeability; assay: Vascular permeability in rat (Whittle's method); format: in vivo, rat (Wistar strain, male)
Procedure: (ii) Vascular permeability in rat (Whittle's method)
The test compound was orally administered to each Wistar strain male rat (weighing about 150 g) which had been fasted overnight. After 55 minutes, 0.5 ml of a 0.5% Evans Blue solution was intravenously injected. Five minutes thereafter, 0.2 ml/100 g of a 3%(V/V) acetic acid solution was intraperitoneally injected. After 60 minutes from the injection of the acetic acid solution, the rats were killed by suffocation with chloroform. After immediate laparotomy, the dye leaked into the peritoneal cavity was washed out with physiological saline. The washings were made up with the saline to 30 ml and the absorbance at 640 mμ was measured to examine the effect of the test compounds by comparing the amounts of leaked dye per rat with one another.

[10] = Mus musculus, po, 10 min, writhing, 40 mg/kg p.o.
[11] = Mus musculus, po, 10 min, read-out: Inhibition

Cc1cc(-c2ccc(C(C)C(=O)O)cc2)sc1C (centres unmarked) [Compound C7]
inhibition in vivo at 5 mg/kg ([1]; 5 mg/kg p.o., mean in 5 hours): -21.6% | inhibition in vivo at 15 mg/kg ([1]; mean in 5 hours): 15.1% | Frequency of writhing, mean ± S.E. ([2]; 40 mg/kg p.o.): 19.1 ± 3.8 | inhibition in vivo at 40 mg/kg [2, 10]: 19.1% | ED50 ([2]; po, mouse, read-out: ED50): > 50 mg/kg

COc1ccc2c(c1)c(CC(=O)O)c(C)n2C(=O)c1ccc(Cl)cc1 [Indomethacin]
Analgesic effect ([3]; 5 mg/kg p.o.): 44% | Analgesic effect ([3]; 20 mg/kg p.o.): 80% | ED50 [3]: 6 mg/kg | Dye leakage (P.S.B.) mean ± S.E. ([4]; 5 mg/kg p.o.): 240.5 ± 25.9 μg/20g | Dye leakage (P.S.B.) mean ± S.E. ([4]; 10 mg/kg p.o.): 204.5 ± 17.6 μg/20g | Dye leakage (P.S.B.) mean ± S.E. ([4]; 20 mg/kg p.o.): 176.4 ± 17.0 μg/20g | ED30 ([4]; Mus musculus, po): 6.8 mg/kg | Inhibition ([4]; 5 mg/kg p.o.): 25.0% | Inhibition ([4]; 10 mg/kg p.o.): 36.3% | Inhibition ([4]; 20 mg/kg p.o.): 45.0% | LD50 [5]: 16.2 mg/kg | Inhibition ([6]; 1 mg/kg p.o.): 27.4% | Inhibition ([6]; 5 mg/kg p.o.): 41.6% | Inhibition ([6]; 25 mg/kg p.o.): 75.6% | ED50 ([6]; Rattus norvegicus, po): 6.3 mg/kg | Mean decrease in temp. ([7]; 0.2 mg/kg p.o.): 0.25 °C | Mean decrease in temp. ([7]; 1 mg/kg p.o.): 0.87 °C | Mean decrease in temp. ([7]; 5 mg/kg p.o.): 1.35 °C | ED1.0 ([7]; Rattus norvegicus, po): 1.06 mg/kg | Uricosuric action (in words) [8]: very weak | Inhibition ([9]; 0.5 mg/kg p.o.): 20.7% | Inhibition ([9]; 1 mg/kg p.o.): 32.5% | Inhibition ([9]; 5 mg/kg p.o.): 47.7% | ED30 ([9]; Rattus norvegicus, po): 1 mg/kg | inhibition in vivo at 1 mg/kg ([1]; 5 h): 6.4% | inhibition in vivo at 5 mg/kg ([1]; 5 h): 46.2% | Frequency of writhing, mean ± S.E. ([2]; 5 mg/kg p.o.): 13.8 ± 2.9 | Frequency of writhing, mean ± S.E. ([2]; 10 mg/kg p.o.): 9.1 ± 3.1 | Frequency of writhing, mean ± S.E. ([2]; 20 mg/kg p.o.): 5.4 ± 2.1 | ED50 ([2]; Mus musculus, po): 7 mg/kg | inhibition in vivo at 5 mg/kg [2, 11]: 41.5% | inhibition in vivo at 10 mg/kg [2, 11]: 61.4% | inhibition in vivo at 20 mg/kg [2, 11]: 77.1%

O=C(O)Cc1ccc(-c2cccs2)cc1 [Compound C9]
inhibition in vivo at 5 mg/kg ([1]; 5 mg/kg p.o., mean in 5 hours): 15.1% | inhibition in vivo at 15 mg/kg ([1]; mean in 5 hours): 24.1% | Frequency of writhing, mean ± S.E. ([2]; 40 mg/kg p.o.): 13.9 ± 1.6 | inhibition in vivo at 40 mg/kg [2, 10]: 41.1% | ED50 ([2]; po, mouse, read-out: ED50): > 40 mg/kg

CC(C(=O)O)c1ccc(-c2ccc(Cl)s2)cc1 (centres unmarked) [Compound C8]
inhibition in vivo at 5 mg/kg ([1]; 5 mg/kg p.o., mean in 5 hours): 17% | inhibition in vivo at 15 mg/kg ([1]; mean in 5 hours): 41.9% | Frequency of writhing, mean ± S.E. ([2]; 20 mg/kg p.o.): 17.5 ± 4.2 | Frequency of writhing, mean ± S.E. ([2]; 40 mg/kg p.o.): 6.3 ± 0.6 | inhibition in vivo at 20 mg/kg ([2]; Mus musculus, po, 10 min, writhing, 20 mg/kg p.o., read-out: Inhibition): 25.8% | inhibition in vivo at 40 mg/kg [2, 10]: 73.3% | ED50 ([2]; po, mouse, read-out: ED50): 27 mg/kg

CC(=O)Oc1ccccc1C(=O)O [Aspirin]
Analgesic effect ([3]; 200 mg/kg p.o.): 25% | Analgesic effect ([3]; 800 mg/kg p.o.): 53% | ED50 [3]: 710 mg/kg

CC(C(=O)O)c1cccc(C(=O)c2ccccc2)c1 (centres unmarked) [Ketoprofen]
Analgesic effect ([3]; 10 mg/kg p.o.): 40% | Analgesic effect ([3]; 40 mg/kg p.o.): 61% | ED50 [3]: 19.5 mg/kg
